Holding throughout (test): NCI tumour cell line growth inhibition, 48 h
Assay [1] has as its system HCT-15 colon.
For assay [2], the system named is NCI-H522 lung.
Assay [3] has as its system UACC-257 melanoma.
Assay [4] relates to K-562 leukemia.
Assay [5] relates to UACC-62 melanoma.
For assay [6], the system named is U251 CNS.
Assay [7] has as its system CAKI-1 renal.
The test system of assay [8] is SF-268 CNS.
The test system of assay [9] is SK-MEL-5 melanoma.
The subject of assay [10] is HS 578T breast.

Structures are written as SMILES.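 Following 48 hours of exposure in 96-well plates, responses at five concentrations were used to interpolate endpoints linearly. Abbreviation: GI50, concentration required for 50% inhibition of growth. At the TGI there is no net growth.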

For the compound `CCCCCCCCCCCCCCCCCc1nccn1CCOCCO`, the GI50 in [1] is 6.36 mg/L; in assay [2] it was 4.84 mg/L; in [3], 5.49 mg/L; in assay [4] it was 4.87 mg/L; in assay [5], 4.99 mg/L; in [6], 4.52 mg/L. Also, the GI50 in [7] is 6.3 mg/L; in assay [8] it was 5.16 mg/L; in assay [9] it was 4.87 mg/L; in assay [10], 5.34 mg/L. Also, the TGI in [1] is 12.2 mg/L; in [2], 10.2 mg/L; in assay [3], 11 mg/L; in assay [4] it was 12.1 mg/L; in assay [5], 9.87 mg/L; in assay [6], 9.62 mg/L. Moreover, the TGI came to 13.1 mg/L in assay [7], 10.4 mg/L in assay [8], 9.61 mg/L in assay [9] and 12.7 mg/L in [10].
As to `O=C1/C=C/[C@@H](O)[C@@H]2C[C@@H](O)C[C@H]2/C=C/CCC[C@H](CCc2cccc3ccccc23)O1`, the GI50 in [1] is 0.326 µM; in [2], 0.234 µM; in assay [3], 0.0303 µM; in [4] it was 0.368 µM; in assay [5], 0.038 µM; in assay [6], 0.0475 µM. Further, the GI50 is 0.239 µM in assay [7], 0.0365 µM in [8], 0.0171 µM in [9] and 0.779 µM in [10]. Also, the TGI is 10.5 µM in assay [1]; 0.581 µM in assay [2]; 0.983 µM in assay [3]; 14.4 µM in [4]; 12.9 µM in assay [5]; 12.1 µM in [6]. Moreover, the TGI in [7] was 3.08 µM; in assay [8] it was 12.3 µM; in assay [9], 0.0326 µM; in assay [10], more than 49.2 µM.
In the case of `Cc1c(O)c(N=Nc2nc3ccccc3s2)c2ccccc2c1O`, the GI50 was 23.3 µM in assay [1]; 19.1 µM in [2]; 14.7 µM in assay [3]; 14.7 µM in assay [4]; 15.3 µM in assay [5]; 25.5 µM in [6]. Moreover, the GI50 is 21.1 µM in assay [7], 18.2 µM in [8], 8.85 µM in [9] and 28.9 µM in [10]. Moreover, the TGI was more than 50 µM in assay [1]; 46.6 µM in assay [2]; 36.1 µM in [3]; 48.3 µM in assay [4]; more than 50 µM in assay [5]; more than 50 µM in assay [6]. Moreover, the TGI in assay [7] was more than 50 µM; in assay [8] it was more than 50 µM; in [9], 21.2 µM; in assay [10] it was more than 50 µM.
For the compound `CO[C@H]1C=CO[C@@]2(C)Oc3c(C)c(O)c4c(O)c(c(CN5CCN(C)CC5)c(O)c4c3C2=O)NC(=O)/C(C)=C\C=C[C@H](C)[C@H](O)C(C)[C@@H](O)C(C)[C@H](OC(C)=O)[C@@H]1C` (stereo not given in full), the TGI in assay [1] is more than 100 µM; in assay [2] it was 46.5 µM; in assay [3], more than 72.8 µM; in [4], more than 100 µM; in assay [5] it was more than 100 µM; in assay [6] it was more than 100 µM. Moreover, the TGI in assay [7] is more than 100 µM; in assay [8], more than 100 µM; in [9], 56.4 µM; in assay [10] it was more than 100 µM.
Turning to `CC1=CC(C)=NN=C(N)N1S(=O)(=O)c1cc(C)c(Cl)cc1SCc1ccccc1`, the GI50 in assay [1] was 7.86 µM; in assay [2] it was 7.78 µM; in assay [3], 37.6 µM; in [4], 9.22 µM; in assay [5], 12.4 µM; in assay [6], 16.8 µM. The GI50 is more than 100 µM in [7], 35.1 µM in assay [8], 40.7 µM in assay [9] and more than 100 µM in assay [10]. The TGI in [1], in assay [2], in [3], in assay [4], in [5] and in assay [6] was more than 100 µM throughout. Besides, the TGI in assay [7], in assay [8], in assay [9] and in assay [10] was more than 100 µM in each case.
Consider `CC(=O)OC1CCC2(C)C(CCC3C2CC(=O)C2(C)C3CC(N3CC3)C2C(C)=O)C1` (stereo not given), for which the TGI in assay [1] came out at 70.6 µM; in [2], 29.8 µM; in [3], 32.5 µM; in assay [4], 89.7 µM; in [5] it was 36.5 µM; in [6] it was 37.8 µM. The TGI in assay [7] turned out to be 34.6 µM; in [8], 27.1 µM; in [9], 32.3 µM; in [10], 40.9 µM.

The values are drawn from PubChem BioAssay (NCI).
